The subject of assay [1] is PC3 and C4-2 sensitive and resistant cells. Put plainly: Prostatosphere formation. In kind it is cell-based. To be noted: resistant cells (PC3-R); EHT1864 20 μM. The method, then: FIG. 2B. Resistant and sensitive populations were analyzed for prostatosphere formation in the presence of either a NRP inhibitory peptide (c-furSEMA) or control peptide (c-SEMA).
FIG. 3H. PC3-R cells were stimulated with VEGF in the presence or absence of a Rac1 inhibitor (EHT1864; 20 μM) and the effect on prostatosphere formation was measured.
FIG. 6I. Prostatosphere formation by VEGF^high cells in the presence or absence of EHT1864 was quantified.

Assay [2] deals with Lin-Sca+CD49fhigh cells (LSC cells). Put plainly: Freshly sorted LSC cells from PTENpc-/- mice: proliferation, prostatosphere formation, qPCR. To be noted: Rac1 inhibitor EHT1864 (FIG. 3I). It is filed as cell-based, mouse. As to the method:
FIG. 3I. Freshly sorted Lin^−Sca^+CD49f^high cells (LSC cells) from PTEN^pc−/− mice were used to measure the effect of EHT1864, mcr84 or sunitinib on cell proliferation and prostatosphere formation.
FIG. 3J. Freshly sorted LSC cells from PTEN^pc−/− mice were treated with EHT1864 (20 μM) and expression of genes associated with stem cells and VEGF signaling was quantified by qPCR.
(§1) Cell-based assays: The chemosensitivity of prostate cancer cells was determined using a standard 3-(4,5-dimethylthiazol-2-yl)-2,5-diphenyltetrazolium bromide (MTT) cytotoxicity assay. The assay was performed 72 hours after treatment. FACS was used to isolate cells based on their surface expression of CD44, CD24, and the α6 and β4 integrins. The detailed procedure for isolating LSC cells from PTEN^pc−/− mice using lineage markers (CD31, CD45, and Ter119), Sca-1, and CD49f is described, e.g., in Mulholland, D. J., Xin, L., Morim, A., Lawson, D., Witte, O., and Wu, H. 2009. Lin−Sca−1+CD49fhigh stem/progenitors are tumor-initiating cells in the Pten-null prostate cancer model. Cancer Res 69:8555-8562; Lawson, D. A., Xin, L., Lukacs, R. U., Cheng, D., and Witte, O. N. 2007. Isolation and functional characterization of murine prostate stem cells. Proc Natl Acad Sci USA 104:181-186.

In assay [3] the test system is PTENpc-/- prostate tumors. Put plainly: Pten pc-/- transgenic mouse model of prostate cancer. In kind it is in vivo. To be noted: for number of LSC cells: from 6 weeks of age. The method, then: FIG. 4C. Six-week old Pten^pc−/− mice were injected (i.p.) with either mcr84 (10 mg/kg) or EHT1864 (10 mg/kg) twice weekly for three weeks. The GU tract was harvested and total weight was measured. The prostate glands were separated and combined weight of all the lobes was measured. The prostate glands were digested and LSC cells (Lin^−Sca^+CD49f^high) were isolated by FACS.
FIG. 4D. Six-week old Pten^pc−/− mice were injected (i.p.) with either mcr84 (10 mg/kg) or EHT1864 (10 mg/kg) twice weekly for three weeks. The GU tract was harvested and total weight was measured. The prostate glands were separated and combined weight of all the lobes was measured.
FIG. 4E. Hematoxylin and eosin (H&E) staining of prostate tumors from Pten^pc−/− mice described in FIG. 4C, and the percentage of prostate glands showing either PIN or well-differentiated adenocarcinoma (AdCa). Scale bar is 100 μm.
FIG. 4F. TUNEL staining of tumor sections of prostate tumors from Pten^pc−/− mice described in FIG. 4C to detect apoptosis. Scale bar is 100 μm.
FIG. 7C. Six-week old Pten^pc−/− mice were injected (i.p.) with either mcr84 (10 mg/kg) twice weekly for three weeks. The prostate glands were harvested and immunostained using a myc antibody.
To pursue this hypothesis further, PTEN^pc−/− transgenic mice were treated with the Rac1 inhibitor (EHT1864), mcr84 or both at the start of puberty (6 weeks). […] We also compared the impact of mono- and combined therapy on PTEN^pc−/− tumors by calculating the weights of the isolated GU tracts and prostate lobes. […] Moreover, a mass of cells in the lumen of the gland was evident in mice that received the combined treatment. […] These tumor groups were also stained with CD31. Six-week old Ptenpc−/− mice were injected (i.p.) with either mcr84 (10 mg/kg) or EHT1864 (10 mg/kg) twice weekly for three weeks. The prostate glands were harvested and angiogenesis was analyzed using CD31 staining.

A further assay deals with NRP1 (Homo sapiens, UniProt O14786). Briefly: Ability to block VEGF-A binding to NRP. To be noted: FIG. 9H. The source says: FIG. 9H. Ability of VEGF antibodies to block VEGF-A binding to NRP.
Assay [4] concerns human prostate tumor cells. Put plainly: Sensitivity to bevacizumab of subpopulations sorted from freshly harvested prostate tumors (cell survival). In kind it is cell-based. The method, then: FIG. 1B. Four subpopulations isolated based on expression of CD44 and CD24 were analyzed for their sensitivity to bevacuzimab. The percentage of live cells in three different areas was determined and mean is plotted as cell survival.
FIG. 1C. Cells from two human freshly harvested prostate tumors were sorted using ITGA6 and ITGB4 antibodies. The four subpopulations isolated based on expression of ITGA6 and ITGB4 were analyzed for their ability to form prostatospheres and sensitivity to bevacuzimab. The percentage of live cells in three different areas was determined and mean is plotted as cell survival.
Isolation of human prostate tumor cells and laser capture microscopy (LCM): Human prostate tumor tissue was obtained from UMASS Cancer Center Tissue Bank in compliance with the Institutional Review Board of the University of Massachusetts Medical School. The discarded but freshly resected, prostate tumors were digested with collagenase at 37° C. and epithelial cells were isolated using an EpCaM antibody. Frozen sections were microdissected by laser capture microscopy (Arcturus PixCell 2) to obtain pure populations of tumor cells of defined Gleason grades. […] Quantitative real-time PCR was done using the Taqman assay kit (Applied Biosystems). […]

The subject of assay [5] is PC3 and C4-2 sensitive and resistant cells. Briefly: Colony formation and MTT viability of sensitive and resistant cell lines. It is filed as cell-based. As to the method:
FIG. 1F. PC3 and C4-2 resistant and sensitive cell lines were analyzed for colony formation in the presence or absence of 10 μM Pazopanib.
FIG. 2C. Resistant and sensitive populations were analyzed for sensitivity to bevacuzimab (1 mg/ml) in the presence of either a NRP inhibitory peptide (c-furSEMA) or control peptide (c-SEMA).
FIG. 8F. PC3 and C4-2 resistant and sensitive cell lines were cultured in the presence of pazopanib (10 μM) or DMSO for 72 hours and cell viability is analyzed using the MTT assay.
FIG. 9D. PC3 and C4-2 resistant cells (10^3 cells per 60 mm plate) were cultured in the presence of either c-SEMA or c-furSEMA (1 μM), control IgG or NRP2 inhibitory antibody (1 μg/ml), or their respective controls for 10 days and colonies were stained with crystal violet. Colonies with more than 50 cells were counted.
as §1
The resistant cell lines generated are referred to as PC3-R and C4-2R. As controls, we also exposed these cell lines to control IgG (hIgG) and DMSO and refer to these as sensitive cell lines (PC3-S and C4-2S) (FIGS. 1D-1E).

For a further assay, the system named is ERK. Briefly: ERK activation by immunoblotting with phospho-specific antibody. In kind it is cell-based. The method, then: FIG. 2D. PC3-S cells were serum-deprived overnight and stimulated with VEGF (50 ng/ml) for 30 minutes in the presence or absence of bevacuzimab (5 mg/ml). The activation of ERK was analyzed by immunoblotting using a phospho-specific antibody.
FIG. 2F. Sensitive and resistant C4-2 cell lines were serum-deprived overnight and stimulated with VEGF (50 ng/ml) for 30 minutes in the presence of bevacuzimab (5 mg/ml). The activation of ERK and AKT was analyzed by immunoblotting using phospho-specific antibodies.
FIG. 2G. Sensitive and resistant PC3 cell lines were serum-deprived overnight and stimulated with VEGF (50 ng/ml) for 30 minutes in the presence of bevacuzimab (5 mg/ml). The activation of ERK and AKT was analyzed by immunoblotting using phospho-specific antibodies.
FIG. 6F. VEGF^high and VEGF^low cells were serum-deprived overnight and stimulated with VEGF (50 ng/ml) for 30 minutes in the presence or absence of bevacuzimab (5 mg/ml). The activation of ERK was analyzed by immunoblotting using a phospho-specific antibody.
Background: In western blotting, separated proteins are transferred to a membrane and probed.

The next assay concerns PC3-R xenograft tumors. Put plainly: PC3-R xenografts in NSG mice. In kind it is in vivo, mouse. The method, then:
FIGS. 4A-4F. Rac1 inhibition improves sensitivity to VEGF/VEGFR-targeted therapy. FIG. 4A. Tumor volume of mice that were treated with either control IgG or bevacuzimab. PC3-R cells were transfected with Rac1 shRNAs and these cells were implanted in NSG mice. Once tumors reached approximately 100 mm^3 in volume, mice were treated with either control IgG or bevacuzimab (10 mg/kg, intraperitoneally, twice weekly). Tumor volume was measured every third day.
FIG. 4B. Terminal deoxynucleotidyl transferase dUTP nick end labeling (TUNEL) for control and treated PC3-R xenograft tumors that were harvested. Apoptosis was analyzed using TUNEL staining. Scale bar is 10 μm.

In assay [6] the test system is VEGFhigh and VEGFlow PC3 cells. Put plainly: Proliferation of VEGFhigh and VEGFlow cells. In kind it is cell-based. To be noted: bevacizumab 1 mg/ml, sunitinib 20 μM, 72 hours. The method, then: FIG. 6E. VEGF^high and VEGF^low cells were incubated with bevacuzimab (1 mg/ml) or sunitinib (20 μM) for 72 hours and their proliferation was assayed.
The subject of assay [7] is androgen-independent prostate cancer. To be noted: bevacizumab monotherapy; cited from earlier work.
Where [8] appears, read: 10 mg/kg i.p. twice weekly for three weeks.
Setting [9] is: Rac1-depleted (shRNA) PC3-R xenografts plus bevacizumab.

As to `O=c1cc(CN2CCOCC2)occ1OCCCCCSc1ccnc2cc(C(F)(F)F)ccc12` [EHT1864], the number of prostatospheres result in [1] is “reduced the number of prostatospheres”. The “sensitivity of LSC cells to mcr84 and sunitinib” value in [2] was “increased the sensitivity of LSC cells”. Besides, in [3] (setting [8]), the “angiogenesis (CD31 staining)” value was “No significant difference in staining” and the “number of LSC cells” value is reported as “reduced the number of LSC cells significantly”. For the same compound, the “number of LSC cells” value in assay [3] (10 mg/kg i.p. twice weekly for three weeks, listed as RACi) was “significantly reduced”. Also, the “pathological examination of prostate tumors (PIN or adenocarcinoma)” value in assay [3] (H&E staining) is “progressed to well-differentiated adenocarcinomas”.
For the compound bevacizumab, the “blocking of the binding of VEGF-A to NRP1” value in the assay with NRP1 was “Neither mcr84 nor bevacizumab blocked”. In addition, in [4] (CD44+CD24- (P1) subpopulation versus other subpopulations), the “resistance to bevacizumab treatment (cell survival)” value was “the only subpopulation that exhibited resistance”. The “resistance to bevacizumab treatment (cell survival)” value in [4] (high CD49f population compared to low CD49f population) is “exhibited resistance”. In addition, the “sensitivity of resistant cells after down-regulation of P-Rex1” value in assay [5] (PC3-R cells with P-Rex1 shRNA, bevacizumab 1 mg/ml, sunitinib 20 μM) is recorded as “increased their sensitivity”. In addition, the “sensitivity to bevacizumab after down-regulation of NRP2 or NRP1” value in [5] (PC3-R cells, shRNA) is “increased sensitivity”. The “ability of the resistant cell lines to form colonies or survive” value in assay [5] (PC3-R, C4-2R, bevacizumab 1 mg/ml, sunitinib 20 μM, 10 days colonies, 72 hours MTT) is “Neither bevacizumab nor sunitinib inhibited”. In addition, in assay [5] (sensitive cells), the “resistance to inhibition of viability and prostatosphere formation after expression of constitutively active MEK” value is “increased their resistance”. Also, in assay [5] (sensitive cells, in the presence of VEGF), the “resistance to bevacizumab after ectopic expression of NRP2” value is reported as “induces resistance”. Besides, in the assay on ERK (VEGFhigh cells), the “basal ERK activation” value is listed as “resistant”. Moreover, the “VEGF-induced ERK activation” value in the assay on ERK (VEGFlow cells) was “inhibited”. The ERK activation entry in the assay with ERK (resistant cells, bevacizumab 5 mg/ml) is on record as “unable to inhibit ERK activation”. In the assay on PC3-R xenograft tumors (setting [9]), the “apoptosis in residual tumors (TUNEL)” value is recorded as “contained mostly apoptotic cells” and the tumor volume result is listed as “significantly better decrease in tumor volume”. In addition, the tumor growth result with PC3-R xenograft tumors (control PC3-R xenografts, bevacizumab alone, 10 mg/kg i.p. twice weekly) was “no significant effect on tumor growth”. In addition, the “resistance of VEGFhigh cells compared to VEGFlow cells (proliferation)” value in assay [6] is “more resistant”. In addition, in assay [7], the “patients exhibiting a decline in PSA” value was 27% and the “response based on RECIST criteria” value is on record as “no response noted”.
